Source: patent US8691859B2 (priority 2005, dated 2014)
In brackets after ≈: the same amount, converted by molar mass.

Columns and labels:
[1] = test system: B. anthracis GFP sterne vegetative cells; assay: microbe, parasite or virus in culture; assay type: cell-based; details: for MIC: Bacillus anthracis, read-out: MIC B. anthracis vegetative cells
[2] = test system: B. anthracis GFP sterne spores; assay: microbe, parasite or virus in culture; assay type: cell-based; details: for MIC: Bacillus anthracis, read-out: MIC B. anthracis spores

Molecule	MIC [1] [µg/mL]	MIC [2] [µg/mL]	MIC B. anthracis vegetative cells [1] [µg/mL]	MIC B. anthracis spores [2] [µg/mL]
C(=C\c1cc2cc(C3=NCCN3)ccc2s1)/c1ccc(C2=NCCN2)cc1 [NSC 317883, 2-[2-[(E)-2-[4-(4,5-dihydro-1H-imidazol-2-yl)phenyl]ethenyl]benzothiophen-5-yl]-4,5-dihydro-1H-imidazole]	17.8 (≈ 47.8 µM)	17.8 (≈ 47.8 µM)		
Glycine, N-acetyl-, compound with 2,2′-(1,{2-ethenediyl)bis[5-benzofurancarboximidamide]} (2:1) [NSC 341082]			>23.16	>23.16
OCCn1c(C=Cc2nc3ccccc3[nH]2)nc2ccccc21 [NSC 103701, 2-[2-[2-(1H-benzoimidazol-2-yl)ethenyl]benzoimidazol-1-yl]ethanol]	> 12.2	> 12.2		
C(=Cc1nc2ccccc2[nH]1)c1nc2ccccc2[nH]1 [NSC 103699, 2-[2-(1H-benzoimidazol-2-yl)ethenyl]-1H-benzoimidazole]	> 10.4	> 10.4		
N=C(N)c1ccc(-n2nc3ccc(C(=N)N)cc3n2)cc1 [NSC 240896, 2-(4-carbamimidoylphenyl)benzotriazole-5-carboximidamide]	> 14.1	> 14.1		
C(=C\c1cc2cc(C3=NCCN3)ccc2o1)/c1cc2cc(C3=NCCN3)ccc2o1 [NSC 278999, 2-[2-[(E)-2-[5-(4,5-dihydro-1H-imidazol-2-yl)benzofuran-2-yl]ethenyl]benzofuran-5-yl]-4,5-dihydro-1H-imidazole]	> 18.8	> 18.8		
Cc1cc(N)c2cc(NC(=O)Nc3ccc4nc(C)cc(N)c4c3)ccc2n1 [NSC 12155, 1,3-bis(4-amino-2-methyl-quinolin-6-yl)urea]	17.8 (≈ 47.8 µM)	4.45 (≈ 11.9 µM)		
c1cc(-c2cc3ccc(C4=NCCN4)cc3s2)ccc1C1=NCCN1 [NSC 278996, 2-[2-[4-(4,5-dihydro-1H-imidazol-2-yl)phenyl]benzothiophen-6-yl]-4,5-dihydro-1H-imidazole]	> 16.8	> 16.8		
c1cc(-c2nc3ccc(-c4nc5ccc(C6=NCCN6)cc5[nH]4)cc3[nH]2)ccc1C1=NCCN1 [NSC 369721, 5-(4,5-dihydro-1H-imidazol-2-yl)-2-[2-[4-(4,5-dihydro-1H-imidazol-2-yl)phenyl]-3H-benzoimidazol-5-yl]-3H-benzoimidazole]	22.3 (≈ 49.9 µM)	1.39 (≈ 3.11 µM)		
Nc1ccc(C2=Cc3ccc(N)cc3S2(=O)=O)cc1 [NSC 266482, 2-(4-aminophenyl)-1,1-dioxo-benzothiophen-6-amine]	> 10.9	> 10.9		
N=C(N)c1ccc(-c2[nH]c3cc(C(=N)N)ccc3c2-c2ccccc2)cc1 [NSC 240897, 2-(4-carbamimidoylphenyl)-3-phenyl-1H-indole-6-carboximidamide]	17 (≈ 48.2 µM)	8.52 (≈ 24.1 µM)		
C(=C\c1cc2ccc(C3=NCCN3)cc2[nH]1)/c1ccc(Oc2ccc(C3=NCCN3)cc2)cc1 [NSC 330690, 6-(4,5-dihydro-1H-imidazol-2-yl)-2-[(E)-2-[4-[4-(4,5-dihydro-1H-imidazol-2-yl)phenoxy]phenyl]ethenyl]-1H-indole]	2.6 (≈ 5.81 µM)	2.6 (≈ 5.81 µM)		
N=C(N)c1ccc(NC(=O)c2cc3ccc(C(=N)N)cc3o2)cc1 [NSC 294207, 6-carbamimidoyl-N-(4-carbamimidoylphenyl)benzofuran-2-carboxamide]	> 15.8	> 15.8		
C(/C=C/c1cc2cc(C3=NCCN3)ccc2o1)=C\c1ccc(C2=NCCN2)cc1 [NSC 308573, 2-[2-[(1E,3E)-4-[4-(4,5-dihydro-1H-imidazol-2-yl)phenyl]buta-1,3-dienyl]benzofuran-5-yl]-4,5-dihydro-1H-imidazole]	18.2 (≈ 47.6 µM)	18.2 (≈ 47.6 µM)		
C(=C\c1cc2cc(C3=NCCN3)ccc2o1)/c1ccc(C2=NCCN2)cc1 [NSC 308570, 2-[2-[(E)-2-[4-(4,5-dihydro-1H-imidazol-2-yl)phenyl]ethenyl]benzofuran-5-yl]-4,5-dihydro-1H-imidazole]	17.2 (≈ 48.1 µM)	17.2 (≈ 48.1 µM)		
c1cc(-c2cc3ccc(C4=NCCN4)cc3[nH]2)ccc1C1=NCCN1 [NSC 278995, 6-(4,5-dihydro-1H-imidazol-2-yl)-2-[4-(4,5-dihydro-1H-imidazol-2-yl)phenyl]-1H-indole]	> 16.1	> 16.1		
O=C(Nc1ccc(C2=NCCN2)cc1)c1cc2ccc(C3=NCCN3)cc2o1 [NSC 294208, 6-(4,5-dihydro-1H-imidazol-2-yl)-N-[4-(4,5-dihydro-1H-imidazol-2-yl)phenyl]benzofuran-2-carboxamide]	> 17.8	> 17.8		
C(=C\c1cc2ccc(C3=NCCN3)cc2o1)/c1cc2ccc(C3=NCCN3)cc2o1 [NSC 294494, 2-[2-[(E)-2-[6-(4,5-dihydro-1H-imidazol-2-yl)benzofuran-2-yl]ethenyl]benzofuran-6-yl]-4,5-dihydro-1H-imidazole]	18.8 (≈ 47.3 µM)	18.8 (≈ 47.3 µM)		
c1cc(-c2cc3cc(C4=NCCN4)ccc3s2)ccc1C1=NCCN1 [NSC 308569, 2-[2-[4-(4,5-dihydro-1H-imidazol-2-yl)phenyl]benzothiophen-5-yl]-4,5-dihydro-1H-imidazole]	> 16.8	> 16.8		
CC(O)C(=O)O.N=C(N)c1ccc(-c2cc3ccc(C(=N)N)cc3s2)cc1 [NSC 240890, 2-(4-carbamimidoylphenyl)benzothiophene-6-carboximidamide; 2-hydroxypropanoic acid]	> 19	> 19		
N=C(N)c1ccc(-c2cc(-c3ccc(C(=N)N)cc3)on2)cc1 [NSC 240900, 4-[3-(4-carbamimidoylphenyl)oxazol-5-yl]benzenecarboximidamide]	> 15.1	> 15.1		
Cc1cc2nc(C=Cc3nc4cc(C)c(C)cc4[nH]3)[nH]c2cc1C [NSC 92833, 2-[2-(5,6-dimethyl-1H-benzoimidazol-2-yl)ethenyl]-5,6-dimethyl-1H-benzoimidazole]	> 12.6	> 12.6		
N=C(N)c1ccc2oc(CCc3cc4cc(C(=N)N)ccc4o3)cc2c1 [NSC 266477, 2-[2-(5-carbamimidoylbenzofuran-2-yl)ethyl]benzofuran-5-carboximidamide]	> 16.8	> 16.8		
N=C(N)c1ccc2c(c1)=NC(=C(N)N)C=2 [NSC 330689, 2-(diaminomethylidene)indole-6-carboximidamide]	> 11	> 11		
c1cc2cc(-c3cc4ccc(C5=NCCN5)cc4[nH]3)[nH]c2cc1C1=NCCN1 [NSC 330688, 6-(4,5-dihydro-1H-imidazol-2-yl)-2-[6-(4,5-dihydro-1H-imidazol-2-yl)-1H-indol-2-yl]-1H-indole]	1.1 (≈ 2.99 µM)	0.551 (≈ 1.5 µM)		
N=C(N)c1ccc(-n2cc3cc(C(=N)N)ccc3n2)cc1 [NSC 240895, 2-(4-carbamimidoylphenyl)indazole-5-carboximidamide]	> 14	> 14		
N=C(N)c1ccc(/C=C/c2cc3cc(C(=N)N)ccc3o2)cc1 [NSC 300512, 2-[(E)-2-(4-carbamimidoylphenyl)ethenyl]benzofuran-5-carboximidamide]	> 15.1	> 15.1		
N=C(N)c1ccc(-c2ccc(-c3ccc(C(=N)N)cc3)s2)cc1 [NSC 300510, 4-[5-(4-carbamimidoylphenyl)thiophen-2-yl]benzenecarboximidamide]	> 15.7	15.7 (≈ 49.1 µM)		
